Laboratory results reported in ChEMBL document CHEMBL1201862, “PubChem BioAssay data set” (2004).
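Compound exposure: 48 hours, 5 concentrations, 96-well plates. GI50 marks 50% less growth.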 Activity calls are given as the source filed them. Rule as the data show it: active = GI50 up to about 1.1 µM and inactive = higher.

What was measured:
Experiment in all cases: inhibition of tumour cell growth, NCI panel, 48 h
A549 = tested on: A549
CAKI-1 = tested on: CAKI-1
CCRF-CEM = tested on: CCRF-CEM
HCT-116 = tested on: HCT-116
HL-60 = tested on: HL-60
HT-29 = tested on: HT-29
IGROV-1 = tested on: IGROV-1
KM12 = tested on: KM12
M14 = tested on: M14
RPMI-8226 = tested on: RPMI-8226
SF-268 = tested on: SF-268
SF-295 = tested on: SF-295
SF-539 = tested on: SF-539
SK-MEL-28 = tested on: SK-MEL-28
SK-OV-3 = tested on: SK-OV-3
SN12C = tested on: SN12C
SNB-19 = tested on: SNB-19
SR = tested on: SR
SW-620 = tested on: SW-620
U-251 = tested on: U-251

SMILES | GI50 (A549) | GI50 (CAKI-1) | GI50 (CCRF-CEM) | GI50 (HCT-116) | GI50 (HL-60) | GI50 (HT-29) | GI50 (IGROV-1) | GI50 (KM12) | GI50 (M14) | GI50 (RPMI-8226) | GI50 (SF-268) | GI50 (SF-295) | GI50 (SF-539) | GI50 (SK-MEL-28) | GI50 (SK-OV-3) | GI50 (SN12C) | GI50 (SNB-19) | GI50 (SR) | GI50 (SW-620) | GI50 (U-251)
CC(=O)n1nnc2ccc([N+](=O)[O-])cc21 | > 100 µM (inactive) | > 100 µM (inactive) | > 100 µM (inactive) | > 100 µM (inactive) | > 100 µM (inactive) | > 100 µM (inactive) | > 100 µM (inactive) | > 100 µM (inactive) | > 100 µM (inactive) | > 100 µM (inactive) | > 100 µM (inactive) | > 100 µM (inactive) | > 100 µM (inactive) | > 100 µM (inactive) | > 100 µM (inactive) | > 100 µM (inactive) | > 100 µM (inactive) | > 100 µM (inactive) | > 100 µM (inactive) | > 100 µM (inactive)
C=C(Cl)C(Br)(CCl)CCC(Br)C(C)(C)Cl (stereo not given) | 17.7 µM (inactive) | 4.95 µM (inactive) | 0.92 µM (active) | 1.72 µM (inactive) | 2.43 µM (inactive) | 2.02 µM (inactive) | 5.82 µM (inactive) | 6.87 µM (inactive) | 2.91 µM (inactive) | 2.06 µM (inactive) | 2.93 µM (inactive) | 5.77 µM (inactive) | 6.95 µM (inactive) | 4.68 µM (inactive) | 14 µM (inactive) | 2.84 µM (inactive) | 3.48 µM (inactive) | 2.92 µM (inactive) | 1.71 µM (inactive) | 7.24 µM (inactive)
C/C(CC(O)(C(F)(F)F)C(F)(F)F)=N/Nc1ccc([N+](=O)[O-])cc1[N+](=O)[O-] | 2.54 µM (inactive) | 2.24 µM (inactive) | 3.41 µM (inactive) | 1.75 µM (inactive) | 2.94 µM (inactive) | 2.69 µM (inactive) | 4.15 µM (inactive) | 3.21 µM (inactive) | 3.61 µM (inactive) | 1.56 µM (inactive) | 2.81 µM (inactive) | 4.1 µM (inactive) | 3.78 µM (inactive) | 3.27 µM (inactive) | 2.33 µM (inactive) | 3.7 µM (inactive) | 3.27 µM (inactive) | 4.9 µM (inactive) | 3.44 µM (inactive) | 2.67 µM (inactive)
CC1OC(n2cc(F)c(=O)[nH]c2=O)CCC1O (stereo not given) | 67.5 µM (inactive) | > 91.6 µM (inactive) | > 100 µM (inactive) | 78 µM (inactive) | > 79.4 µM (inactive) | 98.9 µM (inactive) | > 100 µM (inactive) | > 96.2 µM (inactive) | > 91.4 µM (inactive) | 56.1 µM (inactive) | > 100 µM (inactive) | > 84.5 µM (inactive) | 29.2 µM (inactive) | > 100 µM (inactive) | > 100 µM (inactive) | > 100 µM (inactive) | > 100 µM (inactive) | > 94 µM (inactive) | > 100 µM (inactive) | > 100 µM (inactive)
C=C(C)COc1ccc2c(c1)CCC1C2CCC2(C)C(=O)/C(=N/O)CC12 (stereo not given) | 9.62 µM (inactive) | 1.21 µM (inactive) | 1.94 µM (inactive) | 1.52 µM (inactive) | 1.78 µM (inactive) | 1.31 µM (inactive) | 1.61 µM (inactive) | 2.19 µM (inactive) | 4.13 µM (inactive) | 2.39 µM (inactive) | 3.81 µM (inactive) | 4.37 µM (inactive) | 12.8 µM (inactive) | 17.2 µM (inactive) | 8.55 µM (inactive) | 3.13 µM (inactive) | 11.8 µM (inactive) | 0.966 µM (active) | 1.99 µM (inactive) | 4.09 µM (inactive)
